According to paper PMC8279981, “A first-in-human, phase 1 study of the NEDD8 activating enzyme E1 inhibitor TAS4464 in patients with advanced solid tumors” (Investigational New Drugs, 2021):

Tested on: patients with advanced or metastatic solid tumors
Test: Phase 1 study: treatment-related adverse events (NCI CTCAE v4.03)
Type: in vivo, human
Experimental: The highest non-severely toxic dose was derived from a dog toxicology study and was used to calculate a clinical starting dose of 10 mg/m^2, which corresponds to one-sixth of the human-equivalent dose. The maximum tolerated dose (MTD) of TAS4464 was investigated using an accelerated titration design. Initially, the starting TAS4464 dose was 10 mg/m^2 and was followed by an initial accelerated stage (i.e., weekly dosing phase) with 100% dose-step increments (level 1: 10 mg/m^2, level 2: 20 mg/m^2, level 3: 40 mg/m^2, and level 4: 56 mg/m^2). The 100% dose-step increments continued until the occurrence of a grade ≥ 2 drug-related toxicity within Cycle 1; dose-limiting toxicity (DLT) within Cycle 1; the next dose level reaching 60 mg/m^2; or any safety concerns. Thereafter, 40% increments were employed in the standard stage.
In the standard stage, three to six patients were to be enrolled, and the dose was escalated in 40% increments if none of the first three patients experienced a DLT. If one patient experienced a DLT, three additional patients were to be enrolled at the same dose level. If two of three or two of six patients experienced a DLT, the dose escalation was to be ceased. […] Additionally, DLT criteria regarding abnormal liver function and discontinuation criteria for study drug administration were added. The TAS4464 dose level for Day 1 of Cycle 1 was then set to 40 mg/m^2 (level 3).
Therefore, TAS4464 was administered every 7 days by 1-h intravenous infusion (± 10 min) at the dose assigned to each level. Study treatment was repeated every 28 days. The dosing regimens of each cohort are summarized in Supplementary Fig. 1.
Secondary objectives included assessment of AEs, treatment-related AEs, objective response rate (ORR), disease control rate (DCR), progression-free survival (PFS), and PK, pharmacodynamic, and pharmacogenomic (PGx) parameters with TAS4464 administration. The National Cancer Institute Common Terminology Criteria for Adverse Events (NCI CTCAE) v4.03 [17] was used to assess the severity of AEs. […] RECIST v1.1 [16] was used to determine clinical response, and all computed tomography images were assessed by the physician at the study site after completion of the imaging procedure. The ORR was defined as the percentage of patients with the best overall response of complete response (CR) or partial response (PR). The DCR was the percentage of patients with a best overall response of CR, PR, stable disease (SD), or non-CR/non-progressive disease (PD). PFS was defined as the time from the date of enrollment until the date of investigator-assessed radiological disease progression or death due to any cause, whichever occurred first.

[1] = All-grade, weekly dosing Level 1 (10 mg/m^2), n = 1
[2] = All-grade, weekly dosing Level 2 (20 mg/m^2), n = 1
[3] = All-grade, weekly dosing Level 3 (40 mg/m^2), n = 3
[4] = All-grade, weekly dosing Level 4 (56 mg/m^2), n = 5
[5] = All-grade, weekly dosing with lead-in Level 3 (20 → 40 mg/m^2), n = 3
[6] = All-grade, weekly dosing with lead-in Level 4 (20 → 56 mg/m^2), n = 3

CCOc1cccc(F)c1C#Cc1cn([C@@H]2O[C@H](CNS(N)(=O)=O)[C@@H](O)[C@H]2O)c2ncnc(N)c12 [TAS4464]
Grade ≥ 2 abnormal liver function tests (10 or 20 mg/m^2 weekly doses): did not occur
Grade ≥ 2 abnormal liver function tests (40 and 56 mg/m^2 weekly doses): five patients
AEs leading to dose reduction (ALT increased, weekly dosing level 4): one patient each
AEs leading to treatment discontinuation (AST and ALT increased, weekly dosing with lead-in period level 4): one patient each
ALP increased (treatment-related adverse event) (All-grade, Total, N = 16): 7 (43.8) n (%)
ALT increased (treatment-related adverse event) (All-grade, Total, N = 16): 11 (68.8) n (%)
AST increased (treatment-related adverse event) (All-grade, Total, N = 16): 10 (62.5) n (%)
Anemia (treatment-related adverse event) (All-grade, Total, N = 16): 3 (18.8) n (%)
Blood bilirubin increased (treatment-related adverse event) (All-grade, Total, N = 16): 3 (18.8) n (%)
Decreased appetite (treatment-related adverse event) (All-grade, Total, N = 16): 5 (31.3) n (%)
Diarrhea (treatment-related adverse event) (All-grade, Total, N = 16): 3 (18.8) n (%)
Fatigue (treatment-related adverse event) (All-grade, Total, N = 16): 2 (12.5) n (%)
GGT increased (treatment-related adverse event) (All-grade, Total, N = 16): 4 (25.0) n (%)
Hypoalbuminemia (treatment-related adverse event) (All-grade, Total, N = 16): 2 (12.5) n (%)
Malaise (treatment-related adverse event) (All-grade, Total, N = 16): 3 (18.8) n (%)
Nausea (treatment-related adverse event) (All-grade, Total, N = 16): 7 (43.8) n (%)
Neuropathy peripheral (treatment-related adverse event) (All-grade, Total, N = 16): 2 (12.5) n (%)
Pyrexia (treatment-related adverse event) (All-grade, Total, N = 16): 2 (12.5) n (%)
Rash (treatment-related adverse event) (All-grade, Total, N = 16): 3 (18.8) n (%)
Vomiting (treatment-related adverse event) (All-grade, Total, N = 16): 4 (25.0) n (%)
WBC decreased (treatment-related adverse event) (All-grade, Total, N = 16): 3 (18.8) n (%)
ALP increased (treatment-related adverse event) [1]: 0 n (%)
ALT increased (treatment-related adverse event) [1]: 1 (100.0) n (%)
AST increased (treatment-related adverse event) [1]: 1 (100.0) n (%)
Anemia (treatment-related adverse event) [1]: 0 n (%)
Blood bilirubin increased (treatment-related adverse event) [1]: 0 n (%)
Decreased appetite (treatment-related adverse event) [1]: 0 n (%)
Diarrhea (treatment-related adverse event) [1]: 0 n (%)
Fatigue (treatment-related adverse event) [1]: 0 n (%)
GGT increased (treatment-related adverse event) [1]: 0 n (%)
Hypoalbuminemia (treatment-related adverse event) [1]: 1 (100.0) n (%)
Malaise (treatment-related adverse event) [1]: 0 n (%)
Nausea (treatment-related adverse event) [1]: 0 n (%)
Neuropathy peripheral (treatment-related adverse event) [1]: 0 n (%)
Pyrexia (treatment-related adverse event) [1]: 0 n (%)
Rash (treatment-related adverse event) [1]: 0 n (%)
Vomiting (treatment-related adverse event) [1]: 0 n (%)
WBC decreased (treatment-related adverse event) [1]: 0 n (%)
ALP increased (treatment-related adverse event) [2]: 0 n (%)
ALT increased (treatment-related adverse event) [2]: 1 (100.0) n (%)
AST increased (treatment-related adverse event) [2]: 0 n (%)
Anemia (treatment-related adverse event) [2]: 0 n (%)
Blood bilirubin increased (treatment-related adverse event) [2]: 0 n (%)
Decreased appetite (treatment-related adverse event) [2]: 0 n (%)
Diarrhea (treatment-related adverse event) [2]: 0 n (%)
Fatigue (treatment-related adverse event) [2]: 0 n (%)
GGT increased (treatment-related adverse event) [2]: 0 n (%)
Hypoalbuminemia (treatment-related adverse event) [2]: 0 n (%)
Malaise (treatment-related adverse event) [2]: 0 n (%)
Nausea (treatment-related adverse event) [2]: 0 n (%)
Neuropathy peripheral (treatment-related adverse event) [2]: 0 n (%)
Pyrexia (treatment-related adverse event) [2]: 0 n (%)
Rash (treatment-related adverse event) [2]: 0 n (%)
Vomiting (treatment-related adverse event) [2]: 0 n (%)
WBC decreased (treatment-related adverse event) [2]: 0 n (%)
ALP increased (treatment-related adverse event) [3]: 2 (66.7) n (%)
ALT increased (treatment-related adverse event) [3]: 1 (33.3) n (%)
AST increased (treatment-related adverse event) [3]: 1 (33.3) n (%)
Anemia (treatment-related adverse event) [3]: 0 n (%)
Blood bilirubin increased (treatment-related adverse event) [3]: 1 (33.3) n (%)
Decreased appetite (treatment-related adverse event) [3]: 2 (66.7) n (%)
Diarrhea (treatment-related adverse event) [3]: 1 (33.3) n (%)
Fatigue (treatment-related adverse event) [3]: 1 (33.3) n (%)
GGT increased (treatment-related adverse event) [3]: 1 (33.3) n (%)
Hypoalbuminemia (treatment-related adverse event) [3]: 1 (33.3) n (%)
Malaise (treatment-related adverse event) [3]: 1 (33.3) n (%)
Nausea (treatment-related adverse event) [3]: 2 (66.7) n (%)
Neuropathy peripheral (treatment-related adverse event) [3]: 0 n (%)
Pyrexia (treatment-related adverse event) [3]: 0 n (%)
Rash (treatment-related adverse event) [3]: 0 n (%)
Vomiting (treatment-related adverse event) [3]: 1 (33.3) n (%)
WBC decreased (treatment-related adverse event) [3]: 1 (33.3) n (%)
ALP increased (treatment-related adverse event) [4]: 4 (80.0) n (%)
ALT increased (treatment-related adverse event) [4]: 5 (100.0) n (%)
AST increased (treatment-related adverse event) [4]: 4 (80.0) n (%)
Anemia (treatment-related adverse event) [4]: 1 (20.0) n (%)
Blood bilirubin increased (treatment-related adverse event) [4]: 2 (40.0) n (%)
Decreased appetite (treatment-related adverse event) [4]: 2 (40.0) n (%)
Diarrhea (treatment-related adverse event) [4]: 2 (40.0) n (%)
Fatigue (treatment-related adverse event) [4]: 1 (20.0) n (%)
GGT increased (treatment-related adverse event) [4]: 3 (60.0) n (%)
Hypoalbuminemia (treatment-related adverse event) [4]: 0 n (%)
Malaise (treatment-related adverse event) [4]: 2 (40.0) n (%)
Nausea (treatment-related adverse event) [4]: 4 (80.0) n (%)
Neuropathy peripheral (treatment-related adverse event) [4]: 2 (40.0) n (%)
Pyrexia (treatment-related adverse event) [4]: 0 n (%)
Rash (treatment-related adverse event) [4]: 2 (40.0) n (%)
Vomiting (treatment-related adverse event) [4]: 2 (40.0) n (%)
WBC decreased (treatment-related adverse event) [4]: 1 (20.0) n (%)
ALP increased (treatment-related adverse event) [5]: 0 n (%)
ALT increased (treatment-related adverse event) [5]: 1 (33.3) n (%)
AST increased (treatment-related adverse event) [5]: 2 (66.7) n (%)
Anemia (treatment-related adverse event) [5]: 1 (33.3) n (%)
Blood bilirubin increased (treatment-related adverse event) [5]: 0 n (%)
Decreased appetite (treatment-related adverse event) [5]: 1 (33.3) n (%)
Diarrhea (treatment-related adverse event) [5]: 0 n (%)
Fatigue (treatment-related adverse event) [5]: 0 n (%)
GGT increased (treatment-related adverse event) [5]: 0 n (%)
Hypoalbuminemia (treatment-related adverse event) [5]: 0 n (%)
Malaise (treatment-related adverse event) [5]: 0 n (%)
Nausea (treatment-related adverse event) [5]: 1 (33.3) n (%)
Neuropathy peripheral (treatment-related adverse event) [5]: 0 n (%)
Pyrexia (treatment-related adverse event) [5]: 2 (66.7) n (%)
Rash (treatment-related adverse event) [5]: 0 n (%)
Vomiting (treatment-related adverse event) [5]: 1 (33.3) n (%)
WBC decreased (treatment-related adverse event) [5]: 0 n (%)
ALP increased (treatment-related adverse event) [6]: 1 (33.3) n (%)
ALT increased (treatment-related adverse event) [6]: 2 (66.7) n (%)
AST increased (treatment-related adverse event) [6]: 2 (66.7) n (%)
Anemia (treatment-related adverse event) [6]: 1 (33.3) n (%)
Blood bilirubin increased (treatment-related adverse event) [6]: 0 n (%)
Decreased appetite (treatment-related adverse event) [6]: 0 n (%)
Diarrhea (treatment-related adverse event) [6]: 0 n (%)
Fatigue (treatment-related adverse event) [6]: 0 n (%)
GGT increased (treatment-related adverse event) [6]: 0 n (%)
Hypoalbuminemia (treatment-related adverse event) [6]: 0 n (%)
Malaise (treatment-related adverse event) [6]: 0 n (%)
Nausea (treatment-related adverse event) [6]: 0 n (%)
Neuropathy peripheral (treatment-related adverse event) [6]: 0 n (%)
Pyrexia (treatment-related adverse event) [6]: 0 n (%)
Rash (treatment-related adverse event) [6]: 1 (33.3) n (%)
Vomiting (treatment-related adverse event) [6]: 0 n (%)
WBC decreased (treatment-related adverse event) [6]: 1 (33.3) n (%)
ALP increased (treatment-related adverse event) (Grade ≥ 3, Total, N = 16): 1 (6.3) n (%)
ALT increased (treatment-related adverse event) (Grade ≥ 3, Total, N = 16): 5 (31.3) n (%)
AST increased (treatment-related adverse event) (Grade ≥ 3, Total, N = 16): 5 (31.3) n (%)
